Data from article PMC9637222, “Autoinducer-2 and bile salts induce c-di-GMP synthesis to repress the T3SS via a T3SS chaperone” (Nature Communications, 2022).
Values joined by “and” are separate entries in the source; they are usually repeats but may differ in a detail not shown here. Equal values may be shown once. “Also recorded” adds a separate entry of the source. Read-outs that look alike come from different tables or passages of the source.

How the values were obtained:
[1] = biological target: T1, YedQ-LBD (Salmonella typhimurium, UniProt Q8ZNT5); experiment: biochemical; assay type: binding, S. Typhimurium
T1 construct: the periplasmic LBD (residues 43–357) of YedQ is structurally not well defined; His6 (N, cleaved yes); made in house; host or cells: E. coli BL21(DE3) or its luxS deletion derivative, pET-28a
Method: (§1) ITC measurements were carried out at 20 °C with a Nano ITC Standard Volume isothermal calorimeter (TA Instruments, New Castle, DE) controlled by the ITCRun software. The N-terminal His6 tags of all purified proteins were removed before ITC analysis. For titrations with DPD/AI-2 (Omm Scientific), the tag-free proteins were dialyzed against a Tris buffer (25 mM Tris-HCl, 150 mM NaCl, pH 7.5) and diluted to 70 μM, while DPD/AI-2 was diluted with the same buffer to 700 μM. […] After being degassed, 1 ml of the protein and 250 μl of the ligand solution were added to the sample cell and the syringe, respectively. There were 25 injections per experiment and the stirring speed was 200 rpm. In control experiments, the ligand solution was titrated into the buffer in the sample cell to obtain the heat of dilution. Microcalorimetric data were corrected by subtracting the heats of dilution and fit to the independent binding site model using the NanoAnalyze software.

[2] = biological target: YedQ-LBD D233A (Salmonella typhimurium, UniProt Q8ZNT5, D233A); experiment: biochemical
Method: as §1
(§2) The binding affinitywas evaluated using ITC analysis. ITC data and plots of injected heat for injections
(§3) binding curves were corrected for the dilution effects in the final analysis.
(§4) The Kd and binding stoichiometry
(§5) (n)values were presented as mean ± s.d. of three independent experiments. Source data are provided

[3] = biological target: YedQ-LBD K236A (Salmonella typhimurium, UniProt Q8ZNT5, K236A); experiment: biochemical
Method: as §1, §2, §3, §4, §5

[4] = biological target: YedQ-LBD L288A (Salmonella typhimurium, UniProt Q8ZNT5, L288A); experiment: biochemical
Method: as §1, §2, §3, §4, §5

[5] = biological target: YedQ-LBD L289A (Salmonella typhimurium, UniProt Q8ZNT5, L289A); experiment: biochemical
Method: as §1, §2, §3, §4, §5

[6] = biological target: YedQ-LBD Q264A (Salmonella typhimurium, UniProt Q8ZNT5, Q264A); experiment: biochemical
Method: as §1, §2, §3, §4, §5

[7] = biological target: T2, WP_010904779-LBD (Escherichia coli O157:H7, UniProt Q8XB92); experiment: biochemical; assay type: binding, EHEC O157:H7; conditions: for Binding affinity (in words) / Kd: ITC; for Binding affinity (in words): LBD of the YedQ homolog from EHEC O157:H7
T2 construct: His6 (N, cleaved yes); made in house; host or cells: E. coli BL21(DE3) or its luxS deletion derivative
T2 sequence (Q8XB92 43-357 limits assumed): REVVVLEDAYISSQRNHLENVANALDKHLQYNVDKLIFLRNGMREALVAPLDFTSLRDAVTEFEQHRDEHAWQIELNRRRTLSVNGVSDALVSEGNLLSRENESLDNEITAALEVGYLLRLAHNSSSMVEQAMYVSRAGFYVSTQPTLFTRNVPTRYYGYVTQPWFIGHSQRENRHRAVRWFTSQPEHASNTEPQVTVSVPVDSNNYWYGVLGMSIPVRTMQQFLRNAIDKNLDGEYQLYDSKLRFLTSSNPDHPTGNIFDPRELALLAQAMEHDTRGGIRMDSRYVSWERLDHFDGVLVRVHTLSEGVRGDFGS
Method: as §1
The binding affinity was evaluated by ITC analysis. ITC data and plots of injected heat for automatic
WP_010904779-LBD are shown in the upper and lower plots, respectively. The binding curves were
corrected for the dilution effects in the finalanalysis.
Kd and binding stoichiometry (n) are presented as mean ± s.d. of three

[8] = system: T3, YedQ; experiment: In vitro DGC activity assay of YedQ (membrane fractions, HPLC of c-di-GMP); assay type: biochemical, S. Typhimurium; conditions: for Effect on DGC activity of YedQ in c-di-GMP synthesis (in words): in vitro, membrane fractions
T3 construct: Preparation of membrane fractions containing full-length YeaJ and YedQ; made in house; host or cells: ΔluxS mutant of E. coli BL21(DE3), membrane fractions

[9] = system: S. Typhimurium; experiment: Cellular c-di-GMP quantification by LC-MS/MS; assay type: cell-based; conditions: 1 μM; for c-di-GMP (fmol/107 cells): strain WT(Vector), Fig. 4e; for Change of intracellular c-di-GMP levels (in words): wild-type strain; for Induction of intracellular c-di-GMP levels (in words): ΔyedQ mutant
Method: For stimulation with AI-2, the DPD/AI-2 solution was added to the shaking culture at OD600 of 1.3, followed by another 30 min of incubation at 37 °C. For induction by porcine bile salts and individual bile components (Sigma-Aldrich), substances were added to the static culture at OD600 of 1.1, followed by another 30 min of incubation at 37 °C. About 15 ml of culture was centrifuged and the cells were washed twice with phosphate-buffered saline (PBS, pH 7.0). The cell pellets were resuspended in 500 μl of extraction solution (acetonitrile/methanol/water, 40:40:20, v/v/v) and cooled on ice for 15 min. The samples were boiled for 10 min at 95 °C and then cooled again on ice for 15 min. After centrifugation at 20,000×g and 4 °C for 10 min, supernatants were transferred to new tubes on ice. The remaining pellets were used for two more extraction steps with 500 μl of the extraction solution without heating. Pooled supernatants for each sample were lyophilized, and pellets were resolubilized in 200 μl of distilled water. C-di-GMP concentrations were then measured by LC-MS/MS[63] (AB SCIEX QTRAP 6500+ LC-MS/MS System). Intracellular levels of c-di-GMP were normalized to the number of bacterial cells for each sample.

[10] = system: S. Typhimurium; experiment: Biofilm formation (crystal violet staining); assay type: cell-based; conditions: for Biofilm formation (in words): strain SL1344, individual components of bile salts; for OD590: 1 μM, Fig. 4c
Method: Biofilm formation was measured by crystal violet staining. In brief, overnight cultures of S. Typhimurium strains were diluted with fresh LB medium to an OD600 of 0.05, and 200 μl aliquots of the diluted cells were inoculated into each well of a sterile flat-bottomed 96-well polystyrene microtiter plate. After incubation at 37 °C for 24 h without shaking, culture supernatants were removed, and the wells were washed twice with sterilized water. Cells adhering to the wells were then stained with 0.1% (w/v) crystal violet for 15 min, followed by two washes using distilled water to remove unbound dye. […] For swimming motility assay, overnight cultures of S. Typhimurium strains were diluted to an OD600 of 0.5, and 2 μl aliquots of the diluted cells were spotted onto 0.3% tryptone agar (1% tryptone, 0.5% NaCl, and 0.3% Bacto agar [Difco]). Motility halos were measured after the plates were incubated at 37 °C for 12 h.

[11] = biological target: T4, SicA (Salmonella typhimurium, UniProt P69066); experiment: ITC: nucleotide (c-di-GMP, c-di-AMP, cGMP) binding to SicA; design: species or system S. Typhimurium; conditions: same experimental conditions as c-di-GMP
T4 construct: His6 (N, cleaved yes); made in house; host or cells: E. coli BL21(DE3), pET-28a (pET28a-sicA)
T4 sequence (P69066 whole entry): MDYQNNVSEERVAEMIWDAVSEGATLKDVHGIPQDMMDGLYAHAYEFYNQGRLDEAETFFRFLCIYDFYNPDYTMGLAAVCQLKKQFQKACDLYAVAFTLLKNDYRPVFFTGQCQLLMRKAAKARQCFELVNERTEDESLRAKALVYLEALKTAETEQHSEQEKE

Sequence of YedQ-LBD L289A (Q8ZNT5 43-357 L289A): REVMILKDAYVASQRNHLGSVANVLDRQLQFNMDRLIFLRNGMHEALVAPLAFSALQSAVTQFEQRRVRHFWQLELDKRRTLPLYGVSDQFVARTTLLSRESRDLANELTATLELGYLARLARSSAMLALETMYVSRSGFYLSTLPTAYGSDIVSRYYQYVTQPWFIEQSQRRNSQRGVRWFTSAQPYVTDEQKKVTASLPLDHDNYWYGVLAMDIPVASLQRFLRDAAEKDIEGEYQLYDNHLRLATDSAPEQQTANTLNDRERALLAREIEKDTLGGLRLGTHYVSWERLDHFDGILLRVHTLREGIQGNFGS
T1 sequence (Q8ZNT5 43-357): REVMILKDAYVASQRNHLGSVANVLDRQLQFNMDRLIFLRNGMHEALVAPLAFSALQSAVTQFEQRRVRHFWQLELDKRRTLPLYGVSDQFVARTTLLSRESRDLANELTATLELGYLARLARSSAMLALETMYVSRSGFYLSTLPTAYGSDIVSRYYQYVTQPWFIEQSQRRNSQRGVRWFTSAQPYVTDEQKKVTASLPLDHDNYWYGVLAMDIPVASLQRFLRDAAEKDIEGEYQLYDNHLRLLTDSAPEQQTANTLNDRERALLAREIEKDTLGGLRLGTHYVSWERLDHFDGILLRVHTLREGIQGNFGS
Sequence of YedQ-LBD L288A (Q8ZNT5 43-357 L288A): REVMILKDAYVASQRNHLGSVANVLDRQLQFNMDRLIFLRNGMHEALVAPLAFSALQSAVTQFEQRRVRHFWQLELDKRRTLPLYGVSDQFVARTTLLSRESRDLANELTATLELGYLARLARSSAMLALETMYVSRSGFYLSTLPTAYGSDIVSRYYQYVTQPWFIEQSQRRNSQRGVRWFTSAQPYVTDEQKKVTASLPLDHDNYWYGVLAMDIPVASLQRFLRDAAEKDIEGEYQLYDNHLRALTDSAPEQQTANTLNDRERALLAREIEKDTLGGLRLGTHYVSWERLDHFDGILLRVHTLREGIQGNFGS
Sequence of YedQ-LBD D233A (Q8ZNT5 43-357 D233A): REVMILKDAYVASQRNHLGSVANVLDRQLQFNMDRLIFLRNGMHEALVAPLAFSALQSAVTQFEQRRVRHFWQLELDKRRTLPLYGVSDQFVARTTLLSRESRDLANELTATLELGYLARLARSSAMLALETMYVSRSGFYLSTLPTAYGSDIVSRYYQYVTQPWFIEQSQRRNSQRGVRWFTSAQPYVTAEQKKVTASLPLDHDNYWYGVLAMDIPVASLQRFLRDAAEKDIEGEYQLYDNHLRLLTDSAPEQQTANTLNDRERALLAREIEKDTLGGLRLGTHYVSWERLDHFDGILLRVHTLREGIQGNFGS
Sequence of YedQ-LBD K236A (Q8ZNT5 43-357 K236A): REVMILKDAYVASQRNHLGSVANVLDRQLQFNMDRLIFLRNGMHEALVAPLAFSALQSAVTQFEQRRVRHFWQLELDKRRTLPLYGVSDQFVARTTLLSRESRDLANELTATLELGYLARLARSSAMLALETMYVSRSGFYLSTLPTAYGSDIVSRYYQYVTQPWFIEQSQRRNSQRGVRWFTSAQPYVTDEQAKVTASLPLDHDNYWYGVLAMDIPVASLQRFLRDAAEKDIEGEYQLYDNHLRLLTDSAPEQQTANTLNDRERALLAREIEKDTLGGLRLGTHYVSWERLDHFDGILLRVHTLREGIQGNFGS
Sequence of YedQ-LBD Q264A (Q8ZNT5 43-357 Q264A): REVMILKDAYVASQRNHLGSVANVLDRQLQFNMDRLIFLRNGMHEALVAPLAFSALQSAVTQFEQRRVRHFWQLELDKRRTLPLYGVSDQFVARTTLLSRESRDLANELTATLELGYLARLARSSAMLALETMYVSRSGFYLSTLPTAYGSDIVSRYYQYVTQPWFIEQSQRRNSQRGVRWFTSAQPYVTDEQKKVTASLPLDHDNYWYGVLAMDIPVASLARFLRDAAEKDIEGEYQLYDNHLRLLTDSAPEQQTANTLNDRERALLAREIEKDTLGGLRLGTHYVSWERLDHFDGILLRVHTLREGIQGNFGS

Compound | Binding affinity (in words) [7] | Concentration of c-di-GMP ([8]; 100 μM, 30 min) | Concentration of c-di-GMP ([8]; 100 μM, 60 min) | Concentration of c-di-GMP ([8]; 200 μM, 30 min) | Concentration of c-di-GMP ([8]; 200 μM, 60 min) | Effect on DGC activity of YedQ in c-di-GMP synthesis (in words) [8] | c-di-GMP (fmol/107 cells) [9] | Change of intracellular c-di-GMP levels (in words) [9] | Induction of intracellular c-di-GMP levels (in words) [9] | Biofilm formation (in words) [10] | Binding to SicA (in words) [11] | OD590 [10] | also measured
C[C@H](CCC(=O)NCCS(=O)(=O)O)[C@H]1CC[C@H]2[C@@H]3[C@H](O)C[C@@H]4C[C@H](O)CC[C@]4(C)[C@H]3C[C@H](O)[C@]12C [taurocholate] | high binding; also recorded: high affinity | 22.83 µM and 22.66 µM and 23.00 µM | 34.84 µM and 35.29 µM and 36.56 µM | 39.61 µM and 38.40 µM and 39.33 µM | 45.78 µM and 46.73 µM and 45.87 µM | induce the DGC activity | 57.59 fmol/107 cells and 62.54 fmol/107 cells and 56.52 fmol/107 cells | significant increase | completely abolished | significantly stimulated biofilm formation | – | – | Kd ([1]; Kd (μM), binding to YedQ-LBD (WT)): 0.2 µM and 0.13 µM and 0.16 µM; Kd ([1]; Kd, ITC, YedQ-LBD WT, mean ± s.d. of three independent experiments): 0.17 ± 0.03 µM; Kd ([2]; Binding affinity Kd (μM), ITC, YedQ-LBD D233A, mean ± s.d.): 18 ± 1 µM; n, Taurocholate binding to YedQ-LBDD233A ([2]; ITC binding stoichiometry n, individual replicates, Supplementary Figure 11a): 1.11 and 1.16 and 1.13; Kd ([2]; Kd (μM), binding to YedQ-LBD D233A): 18 µM and 16 µM; Kd ([2]; Kd, Taurocholate binding to YedQ-LBDD233A, ITC, individual replicates, Supplementary Figure 11a): 18 µM; Kd ([3]; Binding affinity Kd (μM), ITC, YedQ-LBD K236A, mean ± s.d.): 27 ± 2 µM; n, Taurocholate binding to YedQ-LBDK236A ([3]; ITC binding stoichiometry n, individual replicates, Supplementary Figure 11b): 1.04 and 1.09 and 1.01; Kd ([3]; Kd (μM), binding to YedQ-LBD K236A): 24 µM and 26 µM and 30 µM; n, Taurocholate binding to YedQ-LBDL288A ([4]; ITC binding stoichiometry n, individual replicates, Supplementary Figure 11d): 1.10 and 1.02 and 1.07; Kd ([4]; Kd (μM), binding to YedQ-LBD L288A): 18 µM and 21 µM and 24 µM; n, Taurocholate binding to YedQ-LBDL289A ([5]; ITC binding stoichiometry n, individual replicates, Supplementary Figure 11e): 1.18 and 1.14 and 1.16; Kd ([5]; Kd (μM), binding to YedQ-LBD L289A): 7.7 µM and 6.8 µM and 7.2 µM; n, Taurocholate binding to YedQ-LBDQ264A ([6]; ITC binding stoichiometry n, individual replicates, Supplementary Figure 11c): 1.07 and 1.18 and 1.00; Kd ([6]; Kd (μM), binding to YedQ-LBD Q264A): 14 µM and 12 µM and 15 µM; n, Taurocholate binding to WP_010904779-LBD ([7]; ITC binding stoichiometry n, individual replicates, Supplementary Figure 24a): 1.06 and 1.08 and 1.12; Kd ([7]; Taurocholate binding to WP_010904779-LBD, individual replicates, Supplementary Figure 24a): 0.19 µM and 0.22 µM and 0.23 µM
C[C@H](CCC(=O)NCCS(=O)(=O)O)[C@H]1CC[C@H]2[C@@H]3CC[C@@H]4C[C@H](O)CC[C@]4(C)[C@H]3C[C@H](O)[C@]12C [taurodeoxycholate] | high binding; also recorded: high affinity | 22.89 µM and 24.25 µM and 23.52 µM | 34.75 µM and 35.42 µM and 35.31 µM | 37.84 µM and 36.56 µM and 37.20 µM | 46.63 µM and 47.86 µM and 45.57 µM | induce the DGC activity | 78.56 fmol/107 cells and 82.79 fmol/107 cells and 79.80 fmol/107 cells | significant increase | completely abolished | significantly stimulated biofilm formation | – | – | Kd ([1]; ITC, YedQ-LBD WT, mean ± s.d. of three independent experiments, read-out: Kd): 0.14 ± 0.02 µM; Kd ([1]; binding to YedQ-LBD (WT), read-out: Kd): 0.15 µM and 0.17 µM and 0.11 µM; n, Taurodeoxycholate binding to WP_010904779-LBD ([7]; ITC binding stoichiometry n, individual replicates, Supplementary Figure 24b): 1.13 and 1.09 and 1.12; Kd ([7]; Taurodeoxycholate binding to WP_010904779-LBD, individual replicates, Supplementary Figure 24b): 0.13 µM and 0.17 µM and 0.19 µM
Nc1ncnc2c1ncn2[C@@H]1O[C@@H]2COP(=O)(O)O[C@H]3[C@@H](O)[C@H](n4cnc5c(N)ncnc54)O[C@@H]3COP(=O)(O)O[C@H]2[C@H]1O [c-di-AMP] | – | – | – | – | – | – | – | – | – | – | no binding | – | –
C[C@H](CCC(=O)NCC(=O)O)[C@H]1CC[C@H]2[C@@H]3[C@H](O)C[C@@H]4C[C@H](O)CC[C@]4(C)[C@H]3C[C@H](O)[C@]12C [Glycocholate] | – | – | – | – | – | – | – | – | – | – | – | 2.14 | –
Nc1nc2c(ncn2[C@@H]2O[C@@H]3COP(=O)(O)O[C@H]3[C@H]2O)c(=O)[nH]1 [cGMP] | – | – | – | – | – | – | – | – | – | – | no binding | – | –
C[C@H](CCC(=O)O)[C@H]1CC[C@H]2[C@@H]3[C@H](O)C[C@@H]4C[C@H](O)CC[C@]4(C)[C@H]3C[C@H](O)[C@]12C [Cholate] | – | – | – | – | – | – | – | – | – | – | – | 2.29 and 2.20 and 2.14 | –
